# How the values were obtained:
# Sclerotinia sclerotiorum = experiment: Test on the preventive effect against cucumber stem rot; format: in vivo; details: 48 h, 5 ml per pot, agar block inoculation, 2 days at 20° C.; for pest or weed control at 500 µg/mL: test solution A 500 ppm
# Experimental: (§1) Compounds of the present invention were dissolved in a solvent for emulsion (a mixture of Sorpol (registered trademark) 3005XL (manufactured by Toho Chemical Industry Co., Ltd.): N-methylpyrrolidone: Solvesso (registered trademark) 200 (manufactured by ExxonMobil Chemical) in a ratio of 1:5:2) to prepare 20 wt % emulsifiable concentrates. Then, distilled water was added to dilute the emulsifiable concentrates to the prescribed concentration (500 ppm), and the obtained solutions were used in the following the Test Examples 1 to 8. Cucumber (varieties: Sagami Hanjiro) was seeded in 90 cm^3 plastic pot, and at the cotyledon stage, 5 ml per pot of test solution A of the compounds of the present invention was applied. After drying in air, the pot was transferred in a plastic container, and an agar blocks (diameter: 5 mm) containing Sclerotinia sclerotiorum which was preliminarily cultivated in a PDA medium was inoculated to the seed leaves of the cucumber treated with the solution. After the inoculation, the plastic container was covered with a plastic sheet, and placed at 20° C. and humidified for 2 days, thus the proportion of the formed lesion in the inoculated leaves were measured to calculate the control value in accordance with the same formula as in the Test Example 1. The test was carried out in duplicate.
# Botrytis cinerea [1] = experiment: Test on the preventive effect against cucumber gray mold (mycelium inoculation); format: in vivo; details: 48 h, 5 ml per pot, cucumber cotyledon, agar block inoculation, 2 days at 20° C.; for pest or weed control at 500 µg/mL: test solution A 500 ppm
# Experimental: as §1, with “applied. On the next day,” for “applied. After drying in air,”, “containing Botrytis cinerea” for “containing Sclerotinia sclerotiorum”, “inoculated on” for “inoculated to”, “the cotyledon” for “the seed leaves”, “sheet, then” for “sheet, and”, “2 days. Thus” for “2 days, thus”
# [2] = test system: Phaeosphaeria nodorum (Synonym: Septoria nodorum); experiment: Test on the preventive effect against wheat glume blotch; format: in vivo; details: Parastagonospora nodorum, 144 h, 5 ml per pot, wheat 1.3-leaf stage, 2 days inoculation chamber then 6 days at 20° C.; for pest or weed control at 500 µg/mL: test solution A 500 ppm
# Experimental: Compounds of the present invention were dissolved in a solvent for emulsion (a mixture of Sorpol (registered trademark) 3005XL (manufactured by Toho Chemical Industry Co., Ltd.): N-methylpyrrolidone: Solvesso (registered trademark) 200 (manufactured by ExxonMobil Chemical) in a ratio of 1:5:2) to prepare 20 wt % emulsifiable concentrates. Then, distilled water was added to dilute the emulsifiable concentrates to the prescribed concentration (500 ppm), and the obtained solutions were used in the following the Test Examples 1 to 8. Wheat (varieties: Haruyutaka) was seeded in 90 cm^3 plastic pot, and at 1.3-leaf stage, 5 ml per pot of test solution A of the compounds of the present invention was applied. One day after treatment, a suspension of conidium of Phaeosphaeria nodorum (Synonym: Septoria nodorum) was sprayed to the wheat, and the pot was left in the inoculation chamber at 20° C. under humidity of 100% RH for 2 days. Then, the pot was placed in an air-conditioned greenhouse (20° C.) for 6 days. The proportion of the formed lesion in the inoculated leaves were measured to calculate the control value in accordance with the same formula as in the Test Example 1. The test was carried out in duplicate.
# [3] = test system: Erysiphe polygoni (synonym: Erysiphe betae); experiment: Test on the preventive effect against cucumber powdery mildew; format: in vivo; details: 216 h, 5 ml per pot sprayed, cucumber cotyledon stage, 9 days after inoculation; for pest or weed control at 500 µg/mL: test solution A 500 ppm
# Experimental: Compounds of the present invention were dissolved in a solvent for emulsion (a mixture of Sorpol (registered trademark) 3005XL (manufactured by Toho Chemical Industry Co., Ltd.): N-methylpyrrolidone: Solvesso (registered trademark) 200 (manufactured by ExxonMobil Chemical) in a ratio of 1:5:2) to prepare 20 wt % emulsifiable concentrates. Then, distilled water was added to dilute the emulsifiable concentrates to the prescribed concentration (500 ppm), and the obtained solutions were used in the following the Test Examples 1 to 8. Cucumber (varieties: Sagami Hanjiro) was seeded in 90 cm^3 plastic pot, and at the cotyledon stage, 5 ml per pot of test solution A of the compounds of the present invention was sprayed. After drying in air, the pot was placed in an air-conditioned greenhouse (20° C.), and a suspension of conidium of Erysiphe polygoni (synonym: Erysiphe betae) was sprayed. After the pot were replaced at the same temperature for 9 days, the proportion of the formed lesion in the inoculated leaves were counted to calculate the control value in accordance with the following formula. The test was carried out in duplicate. Control value=[1−(lesion area ratio in treated plot/lesion are a ratio in non-treated plot)]×100
# [4] = test system: Blumeria graminis f. sp. tritici; experiment: Test on the preventive effect against wheat powdery mildew; format: in vivo; details: 168 h, 5 ml per pot, wheat 1.3-leaf stage, 7 days after inoculation; for pest or weed control at 500 µg/mL: test solution A 500 ppm
# Experimental: Compounds of the present invention were dissolved in a solvent for emulsion (a mixture of Sorpol (registered trademark) 3005XL (manufactured by Toho Chemical Industry Co., Ltd.): N-methylpyrrolidone: Solvesso (registered trademark) 200 (manufactured by ExxonMobil Chemical) in a ratio of 1:5:2) to prepare 20 wt % emulsifiable concentrates. Then, distilled water was added to dilute the emulsifiable concentrates to the prescribed concentration (500 ppm), and the obtained solutions were used in the following the Test Examples 1 to 8. Wheat (varieties: Norin 61) was seeded in 90 cm^3 plastic pot, and at the 1.3-leaf stage, 5 ml per pot of test solution A of the compounds of the present invention were applied. One day after treatment, the pot was placed in an air-conditioned greenhouse (20° C.), and conidium of Blumeria graminis f. sp. tritici was inoculated to the wheat. 7 days after, the proportion of the formed lesion in the inoculated leaves were measured to calculate the control value in accordance with the same formula as in the Test Example 1. The test was carried out in duplicate.
# Botrytis cinerea [5] = experiment: Test on the preventive effect against cucumber gray mold (spore inoculation); format: in vivo; details: 72 h, 5 ml per pot, cucumber cut leaves, conidium inoculation, 3 days at 20° C.; for pest or weed control at 500 µg/mL: test solution A 500 ppm
# Experimental: Compounds of the present invention were dissolved in a solvent for emulsion (a mixture of Sorpol (registered trademark) 3005XL (manufactured by Toho Chemical Industry Co., Ltd.): N-methylpyrrolidone: Solvesso (registered trademark) 200 (manufactured by ExxonMobil Chemical) in a ratio of 1:5:2) to prepare 20 wt % emulsifiable concentrates. Then, distilled water was added to dilute the emulsifiable concentrates to the prescribed concentration (500 ppm), and the obtained solutions were used in the following the Test Examples 1 to 8. Cucumber (varieties: Sagami Hanjiro) was seeded in 90 cm^3 plastic pot, and at the cotyledon stage, 5 ml per pot of test solution A of the compounds of the present invention was applied. After drying in air, the treated leaves were cut and transferred in plastic containers. 30 μl of a mixture of a suspension of conidium of Botrytis cinerea and a dissolved PDA medium in a ratio of 1:1 was dropped on each treated leaf and inoculated. After the inoculation, the plastic containers were placed in 20° C. with humid conditions for 3 days, and the proportion of the formed lesion in the inoculated leaves were counted to calculate the control value in accordance with the same formula as in the Test Example 1. The test was carried out in duplicate.
# [6] = test system: Southern root-knot nematode (Meloidogyne incoqnita); experiment: Insecticidal test against Southern root-knot nematode (eggs, 96 well plate); format: in vivo; details: 96 h, test solution B 100 ppm, 10 μl per well, 25° C. dark, 4 days after treatment, read-out: efficacy (unhatched eggs + inactive larvae relative to non-treated)
# Experimental: (§2) Compounds of the present invention were dissolved in dimethyl sulfoxide to prepare 1 wt % solutions. Then, distilled water was added to dilute the solutions to the prescribed concentration (100 ppm), and the obtained solutions were used in the following the Test Examples 9 to 12. 60 μl of a potato dextrose 1% agar medium was added to each well of a 96 well plate, and 30 μl of sterilized water containing eggs of Southern root-knot nematode (Meloidogyne incoqnita) (10 eggs/3 μl) was added to each well. Further, 10 μl per well of test solution B of the compounds of the present invention was added, and the plate was left at rest at 25° C. under dark conditions.
# [7] = test system: Barber pole worm (Haemonchus contortus); experiment: Insecticidal test against Barber pole worm (eggs, 96 well plate); format: in vivo; details: 96 h, test solution B 100 ppm, 10 μl per well, 25° C. dark, 4 days after treatment, read-out: efficacy (unhatched eggs and inactive larvae relative to non-treated)
# Experimental: as §2, with “Barber pole worm (Haemonchus contortus)” for “Southern root-knot nematode (Meloidogyne incoqnita)”
Structure (SMILES),melting point [°C],pest or weed control at 500 µg/mL (Sclerotinia sclerotiorum) [%],pest or weed control at 500 µg/mL [2] [%],pest or weed control at 500 µg/mL [3] [%],pest or weed control at 500 µg/mL (Botrytis cinerea [5]) [%],further results
CC(NC(=O)c1cccnc1C(F)(F)F)C(SCC(F)(F)F)c1ncc(C#CC2CC2)cc1Cl (stereo not shown) [3-034a],65 to 66,,,,,
CC(NC(=O)c1ccccc1C(F)(F)F)C(OCC(F)(F)F)c1ncc(C#CC2CC2)cc1Cl (stereo not shown) [1-027],,≥ 70,≥ 70,≥ 70,≥ 70,pest or weed control at 500 µg/mL (Botrytis cinerea [1]): ≥ 70%; pest or weed control at 500 µg/mL [4]: ≥ 70%
O=C(NCC(CC(F)(F)F)c1ncc(C#CC2CC2)cc1Cl)c1ccccc1C(F)(F)F (stereo not shown) [1-010],,≥ 70,≥ 70,≥ 70,≥ 70,pest or weed control at 100 µg/mL [6]: ≥ 50%; pest or weed control at 100 µg/mL [7]: ≥ 50%
CC(NC(=O)c1ccccc1C(F)(F)F)C(SCC(F)(F)F)c1ncc(C#CC2CC2)cc1Cl (stereo not shown) [1-032],,,≥ 70,≥ 70,,
O=C(NCC(F)(F)c1ncc(C#CC2CC2)cc1Cl)c1ncccc1C(F)(F)F [2-001],157 to 158,,,,,
"Cn1cc(C(=O)NCC(F)(F)c2ncc(C#CCF)cc2Cl)c(C(F)F)n1 [8-005, N-[2-[3-chloro-5-(3-fluoro-1-propynyl)pyridin-2-yl]-2,2-difluoroethyl]-3-difluoromethyl-1-methyl-1H-pyrazole-4-carboxamide]",110 to 111,,,,,
CC(NC(=O)c1cccnc1Cl)C(SCC(F)(F)F)c1ncc(C#CC2CC2)cc1Cl (stereo not shown) [3-032],,≥ 70,≥ 70,≥ 70,≥ 70,
CCOC(c1ncc(C#CC2CC2)cc1Cl)C(C)NC(=O)c1cccnc1C(F)F (stereo not shown) [3-022],,,,,,pest or weed control at 100 ppm (Sclerotinia sclerotiorum; 100 ppm solution (symbol *)): ≥ 70%; pest or weed control at 100 ppm (Botrytis cinerea [1]; 100 ppm solution (symbol *)): ≥ 70%; pest or weed control at 100 ppm ([2]; 100 ppm solution (symbol *)): ≥ 70%; pest or weed control at 100 ppm ([3]; 100 ppm solution (symbol *)): ≥ 70%; pest or weed control at 100 ppm ([4]; 100 ppm solution (symbol *)): ≥ 70%; pest or weed control at 100 ppm (Botrytis cinerea [5]; 100 ppm solution (symbol *)): ≥ 70%
CC(NC(=O)c1cccnc1C(F)(F)F)C(SCC(F)(F)F)c1ncc(C#CC2CC2)cc1Cl (stereo not shown) [3-034],,≥ 70,≥ 70,≥ 70,≥ 70,pest or weed control at 500 µg/mL (Botrytis cinerea [1]): ≥ 70%
"CC(F)(CNC(=O)c1cccnc1C(F)F)c1ncc(C#CC2CC2)cc1Cl (stereo not shown) [3-038, N-[2-[3-chloro-5-(cyclopropylethynyl)pyridin-2-yl]-2-fluoropropyl]-2-(difluoromethyl)nicotinamide]",113 to 115,,,,,
CCOC(c1ncc(C#CC2CC2)cc1Cl)C(C)NC(=O)c1ccccc1C(F)(F)F (stereo not shown) [1-026],,≥ 70,≥ 70,≥ 70,≥ 70,pest or weed control at 500 µg/mL (Botrytis cinerea [1]): ≥ 70%; pest or weed control at 500 µg/mL [4]: ≥ 70%
"Cn1cc(C(=O)NCC(C#N)c2ncc(C#CC3CC3)cc2Cl)c(C(F)F)n1 (stereo not shown) [8-021, N-[2-[3-chchloro-5-(cyclopropylethynyl)pyridin-2-yl]-2-cyanoethyl]-3-difluoromethyl-1-methyl-1H-pyrazole-4-carboxamide]",43 to 46,,,,,

# — patent publication US10029986B2, “Alkynyl pyridine-substituted amide compound and pesticide” (NISSAN CHEMICAL INDUSTRIES, LTD., priority 2014, dated 2018)
